{"source": "patent US6617356B2", "about": "“Gel system for oral and topical administration of water insoluble and/or water intolerant drugs and supplements” (priority 2000, dated 2003)", "origin": "cited, not measured here", "conditions": "oral, 20 grams creatine monohydrate per day for five days", "data": [{"smiles": "CN(CC(=O)O)C(=N)N.O", "note": "[creatine monohydrate]", "values": [{"measurement": "Muscle total creatine concentration", "result": "increase"}, {"measurement": "Peak and total work production", "result": "cumulative increase"}]}]}
